Laboratory results reported in patent US9783532B2, “Molecules having certain pesticidal utilities, and intermediates, compositions, and processes related thereto” (Dow AgroSciences LLC, priority 2013, dated 2017).

How the values were obtained:
[1] = test system: Beet Armyworm (Spodoptera exigua) ("BAW"); test: Bioassay on beet armyworm (BAW), 128-well diet tray assay; type: in vivo; conditions: for mortality at 50 µg/cm2: 168 h, 50 μg/cm^2 on artificial diet, second instar BAW larvae, 25° C., five to seven days, average of eight wells, read-out: BAW % Control (or Mortality) rating; for pest or weed control at 50 µg/cm2: Table ABC (PC), activity rating class, read-out: BAW (Biological Results, Insect species)
In short: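 Percent mortality, averaged across eight wells, was read after five to seven days at 25° C. under 14:10 light-dark. Each well held one to five second-instar larvae on artificial diet that had been treated with 50 μg/cm^2 compound in 90:10 acetone-water and dried.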

[2] = test system: Cabbage Looper (Trichoplusia ni) ("CL"); test: Bioassay on cabbage looper (CL), 128-well diet tray assay; type: in vivo; conditions: for mortality at 50 µg/cm2: 168 h, 50 μg/cm^2 on artificial diet, second instar CL larvae, 25° C., five to seven days, average of eight wells, read-out: CL % Control (or Mortality) rating; for pest or weed control at 50 µg/cm2: Table ABC (PC), activity rating class, read-out: CL (Biological Results, Insect species)
In short: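 Percent mortality, averaged across eight replicate wells, was read after five to seven days at 25 °C under a 14:10 photoperiod. Each well held one to five second-instar T. ni on diet carrying a dried 50 μg/cm^2 dose applied in acetone-water 90:10.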

| SMILES | mortality at 50 µg/cm2 [1] [%] | mortality at 50 µg/cm2 [2] [%] | pest or weed control at 50 µg/cm2 [1] [%] | pest or weed control at 50 µg/cm2 [2] [%] |
| --- | --- | --- | --- | --- |
| Cc1ccccc1N1C(=O)CS/C1=N\C(=O)NCCCc1cccc(-c2ncn(-c3ccc(OC(F)(F)F)cc3)n2)c1 [P118, (Z)-1-(4-oxo-3-(o-tolyl)thiazolidin-2-ylidene)-3-(3-(3-(1-(4-(trifluoromethoxy)phenyl)-1H-1,2,4-triazol-3-yl)phenyl)propyl)urea] | 50 to 100 | 50 to 100 |  |  |
| CCc1ccccc1N1C(=O)CS/C1=N\C(=O)NCCCc1cccc(-c2ncn(-c3ccc(OC(F)(F)F)cc3)n2)c1 [P119, (Z)-1-(3-(2-ethylphenyl)-4-oxothiazolidin-2-ylidene)-3-(3-(3-(1-(4-(trifluoromethoxy)phenyl)-1H-1,2,4-triazol-3-yl)phenyl)propyl)urea] | 50 to 100 | 50 to 100 |  |  |
| CC(C)c1ccccc1N1C(=O)CS/C1=N\C(=O)NCCCc1cccc(-c2ncn(-c3ccc(OC(F)(F)F)cc3)n2)c1 [P120, (Z)-1-(3-(2-isopropylphenyl)-4-oxothiazolidin-2-ylidene)-3-(3-(3-(1-(4-(trifluoromethoxy)phenyl)-1H-1,2,4-triazol-3-yl)phenyl)propyl)urea] | 50 to 100 | 50 to 100 |  |  |
| Cc1ccc(C(C)C)c(N2C(=O)CS/C2=N\C(=O)NCCCc2cccc(-c3ncn(-c4ccc(OC(F)(F)F)cc4)n3)c2)c1 [P124, (Z)-1-(3-(2-isopropyl-5-methylphenyl)-4-oxothiazolidin-2-ylidene)-3-(3-(3-(1-(4-(trifluoromethoxy)phenyl)-1H-1,2,4-triazol-3-yl)phenyl)propyl)urea] | 50 to 100 | 50 to 100 |  |  |
| CCCc1ccc(C)cc1N1C(=O)CS/C1=N\C(=O)NCCCc1cccc(-c2ncn(-c3ccc(OC(F)(F)F)cc3)n2)c1 [P125, (Z)-1-(3-(5-methyl-2-propylphenyl)-4-oxothiazolidin-2-ylidene)-3-(3-(3-(1-(4-(trifluoromethoxy)phenyl)-1H-1,2,4-triazol-3-yl)phenyl)propyl)urea] | 50 to 100 | 50 to 100 |  |  |
| CCc1cccc(C)c1N1C(=O)CS/C1=N\C(=O)NCCCc1cccc(-c2ncn(-c3ccc(OC(F)(F)F)cc3)n2)c1 [P127, (Z)-1-(3-(2-ethyl-6-methylphenyl)-4-oxothiazolidin-2-ylidene)-3-(3-(3-(1-(4-(trifluoromethoxy)phenyl)-1H-1,2,4-triazol-3-yl)phenyl)propyl)urea] | 50 to 100 | 50 to 100 |  |  |
| Cc1ccc(N2C(=O)CS/C2=N\C(=O)NCCCc2cccc(-c3ncn(-c4ccc(OC(F)(F)F)cc4)n3)c2)c(C(C)C)c1 [P128, (Z)-1-(3-(2-isopropyl-4-methylphenyl)-4-oxothiazolidin-2-ylidene)-3-(3-(3-(1-(4-(trifluoromethoxy)phenyl)-1H-1,2,4-triazol-3-yl)phenyl)propyl)urea] | 50 to 100 | 50 to 100 |  |  |
| CC(C)c1cc(F)ccc1N1C(=O)CS/C1=N\C(=O)NCCCc1cccc(-c2ncn(-c3ccc(OC(F)(F)F)cc3)n2)c1 [P129, (Z)-1-(3-(4-fluoro-2-isopropylphenyl)-4-oxothiazolidin-2-ylidene)-3-(3-(3-(1-(4-(trifluoromethoxy)phenyl)-1H-1,2,4-triazol-3-yl)phenyl)propyl)urea] | 50 to 100 | 50 to 100 |  |  |
| COc1ccc(N2C(=O)CS/C2=N\C(=O)NCCCc2cccc(-c3ncn(-c4ccc(OC(F)(F)F)cc4)n3)c2)c(C)c1 [P131, (Z)-1-(3-(4-methoxy-2-methylphenyl)-4-oxothiazolidin-2-ylidene)-3-(3-(3-(1-(4-(trifluoromethoxy)phenyl)-1H-1,2,4-triazol-3-yl)phenyl)propyl)urea] | 50 to 100 | 50 to 100 |  |  |
| Cc1ccccc1N1C(=O)CS/C1=N\C(=O)NCCCCc1cccc(-c2ncn(-c3ccc(OC(F)(F)F)cc3)n2)c1 [P170, (Z)-1-(4-oxo-3-(o-tolyl)thiazolidin-2-ylidene)-3-(4-(3-(1-(4-(trifluoromethoxy)phenyl)-1H-1,2,4-triazol-3-yl)phenyl)butyl)urea] | 0 | 50 to 100 |  |  |
| CCc1ccccc1N1C(=O)CS/C1=N\C(=O)NCCCCc1cccc(-c2ncn(-c3ccc(OC(F)(F)F)cc3)n2)c1 [P171, (Z)-1-(3-(2-ethylphenyl)-4-oxothiazolidin-2-ylidene)-3-(4-(3-(1-(4-(trifluoromethoxy)phenyl)-1H-1,2,4-triazol-3-yl)phenyl)butyl)urea] | 50 to 100 | 50 to 100 |  |  |
| CC(C)c1ccccc1N1C(=O)CS/C1=N\C(=O)NCCCCc1cccc(-c2ncn(-c3ccc(OC(F)(F)F)cc3)n2)c1 [P172, (Z)-1-(3-(2-isopropylphenyl)-4-oxothiazolidin-2-ylidene)-3-(4-(3-(1-(4-(trifluoromethoxy)phenyl)-1H-1,2,4-triazol-3-yl)phenyl)butyl)urea] | 50 to 100 | 50 to 100 |  |  |
| Cc1ccc(C(C)C)c(N2C(=O)CS/C2=N\C(=O)NCCCCc2cccc(-c3ncn(-c4ccc(OC(F)(F)F)cc4)n3)c2)c1 [P176, (Z)-1-(3-(2-isopropyl-5-methylphenyl)-4-oxothiazolidin-2-ylidene)-3-(4-(3-(1-(4-(trifluoromethoxy)phenyl)-1H-1,2,4-triazol-3-yl)phenyl)butyl)urea] | 50 to 100 | 50 to 100 |  |  |
| CCc1cccc(C)c1N1C(=O)CS/C1=N\C(=O)NCCCCc1cccc(-c2ncn(-c3ccc(OC(F)(F)F)cc3)n2)c1 [P179, (Z)-1-(3-(2-ethyl-6-methylphenyl)-4-oxothiazolidin-2-ylidene)-3-(4-(3-(1-(4-(trifluoromethoxy)phenyl)-1H-1,2,4-triazol-3-yl)phenyl)butyl)urea] | 0 | 0 |  |  |
| Cc1ccc(N2C(=O)CS/C2=N\C(=O)NCCCCc2cccc(-c3ncn(-c4ccc(OC(F)(F)F)cc4)n3)c2)c(C(C)C)c1 [P180, (Z)-1-(3-(2-isopropyl-4-methylphenyl)-4-oxothiazolidin-2-ylidene)-3-(4-(3-(1-(4-(trifluoromethoxy)phenyl)-1H-1,2,4-triazol-3-yl)phenyl)butyl)urea] | 0 | 50 to 100 |  |  |
| CC(C)c1cc(F)ccc1N1C(=O)CS/C1=N\C(=O)NCCCCc1cccc(-c2ncn(-c3ccc(OC(F)(F)F)cc3)n2)c1 [P181] | 50 to 100 | 50 to 100 |  |  |
| COc1ccc(C(C)C)c(N2C(=O)CS/C2=N\C(=O)NCCCCc2cccc(-c3ncn(-c4ccc(OC(F)(F)F)cc4)n3)c2)c1 [P182, (Z)-1-(3-(2-isopropyl-5-methoxyphenyl)-4-oxothiazolidin-2-ylidene)-3-(4-(3-(1-(4-(trifluoromethoxy)phenyl)-1H-1,2,4-triazol-3-yl)phenyl)butyl)urea] | 50 to 100 | 50 to 100 |  |  |
| CCC(CNC(=O)/N=C1\SCC(=O)N1c1cc(C)ccc1C(C)C)c1ccc(-c2ncn(-c3ccc(OC(F)(F)F)cc3)n2)cc1 (centres unmarked) [P364, (Z)-1-(3-(2-isopropyl-5-methylphenyl)-4-oxothiazolidin-2-ylidene)-3-(2-(4-(1-(4-(trifluoromethoxy)phenyl)-1H-1,2,4-triazol-3-yl)phenyl)butyl)urea] | 50 to 100 | 50 to 100 |  |  |
| Cc1ccccc1NC(=S)NC(=O)NCc1ccc(-c2ncn(-c3ccc(OC(F)(F)F)cc3)n2)cc1 [PC1, 1-(o-tolylcarbamothioyl)-3-[[4-[1-[4-(trifluoromethoxy)phenyl]-1H-1,2,4-triazol-3-yl]phenyl]methyl]urea] |  |  | 50 to 100 | 50 to 100 |
| CC(C)c1cc(F)ccc1NC(=S)NC(=O)NCc1ccc(-c2ncn(-c3ccc(OC(F)(F)F)cc3)n2)cc1 [PC3, 1-[(4-fluoro-2-isopropyl-phenyl)carbamothioyl]-3-[[4-[1-[4-(trifluoromethoxy)phenyl]-1H-1,2,4-triazol-3-yl]phenyl]methyl]urea] |  |  | 50 to 100 | 50 to 100 |
| Cc1ccc(NC(=S)NC(=O)NCc2ccc(-c3ncn(-c4ccc(OC(F)(F)F)cc4)n3)cc2)c(C(C)C)c1 [PC5, 1-[(2-isopropyl-4-methyl-phenyl)carbamothioyl]-3-[[4-[1-[4-(trifluoromethoxy)phenyl]-1H-1,2,4-triazol-3-yl]phenyl]methyl]urea] |  |  | 50 to 100 | 50 to 100 |
| CCc1ccc(C)cc1NC(=S)NC(=O)NCc1ccc(-c2ncn(-c3ccc(OC(F)(F)F)cc3)n2)cc1 [PC7] |  |  | 50 to 100 | 50 to 100 |
| CCCc1ccc(C)cc1NC(=S)NC(=O)NCc1ccc(-c2ncn(-c3ccc(OC(F)(F)F)cc3)n2)cc1 [PC8, 1-[(5-methyl-2-propyl-phenyl)carbamothioyl]-3-[[4-[1-[4-(trifluoromethoxy)phenyl]-1H-1,2,4-triazol-3-yl]phenyl]methyl]urea] |  |  | 50 to 100 | 50 to 100 |
| Cc1ccc(NC(=S)NC(=O)NCc2ccc(-c3ncn(-c4ccc(C(F)(F)F)cc4)n3)cc2)c(C(C)C)c1 [PC15, 1-[(2-isopropyl-4-methyl-phenyl)carbamothioyl]-3-[[4-[1-[4-(trifluoromethyl)phenyl]-1,2,4-triazol-3-yl]phenyl]methyl]urea] |  |  | 50 to 100 | 50 to 100 |
| Cc1ccccc1NC(=S)NC(=O)NCCc1cccc(-c2ncn(-c3ccc(OC(F)(F)F)cc3)n2)c1 [PC74, 1-(o-tolylcarbamothioyl)-3-[2-[3-[1-[4-(trifluoromethoxy)phenyl]-1H-1,2,4-triazol-3-yl]phenyl]ethyl]urea] |  |  | 50 to 100 | 50 to 100 |
